Entries after “also recorded” stand apart in the source; their conditions may differ.
Columns and labels:
[1] = molecular target: T1, rat prostate estrogen receptor (ERβ containing cytosol) (Rattus norvegicus, UniProt Q62986); assay: Estrogen receptor binding, competition with [3H]-estradiol, rat prostate cytosol (compared with rat uterus cytosol); conditions: rat prostate cytosol (ERβ) vs rat uterus cytosol (ERα)
T1 construct: Receptor containing cytosol was prepared from rat prostate (ERβ containing cytosol); from tissue; host or cells: rat prostate cytosol
Description: The binding affinity of 8β-Vinyl-estra-1,3,5(10)-trien-3,17β-diol and 17β-Fluor-9α-vinyl-estra-1,3,5(10)-trien-3,16α-diol was determined by competition experiments using [3H]-estradiol as a ligand. Receptor containing cytosol was prepared from rat prostate (ERβ containing cytosol) and rat uterus (ERα containing cytosol).
The preparation of rat uterus cytosol and the binding study were performed as described (Stack, Gorski 1985, Endocrinology 117, 2024-2032) with some modifications as described by Fuhrmann et al. (Fuhrmann U. et al. 1995, Contraception 51: 45-52).
The preparation of rat prostate cytosol and the binding study was performed as described (Testas J. et al., 1981, Endocrinology 109: 1287-1289).

human ERβ = molecular target: T2, human ERβ (Homo sapiens, UniProt Q92731); assay: Binding to human estrogen receptors expressed by the Baculovirus/SF-9-expression system; conditions: human receptors expressed by Baculovirus/SF-9-expression system
T2 construct: host or cells: Baculovirus/SF-9 expression system

[2] = test system: uterus (indicator of classical ERα-mediated estrogen action); assay: Uterus fresh weight in ovariectomized SHR; assay type: in vivo, rat; conditions: ovx SHR, daily sc injection for 4 weeks; 30 μg/kg/d (estradiol 2 μg/kg/d); FIG. 1
Description: (§1) The effects of the ERβ-agonists on blood pressure (BP) in ovariectomized SHR, a widely accepted animal model of hypertensive heart disease, were investigated in three independent studies. Estradiol and the steroidal ERα agonist 3,17β-Dihydroxy-19-nor-17α-pregna-1,3,5(10)-triene-21,16α-lactone were used as references. Female spontaneously hypertensive rats (SHR-Nico; 12 weeks old; Charles River Laboratories) were used for the experiment. All animals were kept under standard conditions (eg 12 hr ON/OFF light cycle, commercial diet and water ad libitum). Animals were randomly assigned to different treatment groups as outlined below. All animals were marked individually by ear tag. Female rats (SHR; 12 weeks old) were ovarectomized (ovx) and treated for 4 weeks starting one day after ovx according to the protocol outlined below. All compounds were injected daily using ethanol (EtOH)/peanut oil 4+1 as the vehicle. [table] 12 weeks old female SHR (Charles River™) were ovariectomized or sham-operated. […] After 4 weeks treatment hemodynamic parameters were measured as described previously (Fraccarollo D, Hu K, Galuppo P, Gaudron P, Ertl G. (1997), Circulation. 1997;96:3963-3973) and animals were euthanized. Uterus fresh weight was measured as an indicator of classical ERα-mediated estrogen action.

[3] = Body weight of ovariectomized SHR; assay type: in vivo, rat; conditions: daily sc injection for 4 weeks, 30 μg/kg/d (estradiol 2 μg/kg/d), FIG. 2
Description: as §1, with “euthanized.” for “euthanized. Uterus fresh weight was measured as an indicator of classical ERα-mediated estrogen action.”

[4] = test system: spontaneously hypertensive rats (SHR); assay: In vivo hemodynamics in ovariectomized spontaneously hypertensive rats (SHR); design: species or system rat; conditions: for cardiac output: FIG. 4; for blood pressure / effectiveness in lowering blood pressure relative to estradiol and the ERα agonist: ovx SHR, FIG. 3; for blood pressure: compared to vehicle treated (placebo) animals; for effectiveness in lowering blood pressure relative to estradiol and the ERα agonist: 30 μg/kg/d vs estradiol 2 μg/kg/d and ERα agonist 30 μg/kg/d
Description: The effects of the ERβ-agonists on blood pressure (BP) in ovariectomized SHR, a widely accepted animal model of hypertensive heart disease, were investigated in three independent studies. Estradiol and the steroidal ERα agonist 3,17β-Dihydroxy-19-nor-17α-pregna-1,3,5(10)-triene-21,16α-lactone were used as references. Female spontaneously hypertensive rats (SHR-Nico; 12 weeks old; Charles River Laboratories) were used for the experiment. All animals were kept under standard conditions (eg 12 hr ON/OFF light cycle, commercial diet and water ad libitum). Animals were randomly assigned to different treatment groups as outlined below. All animals were marked individually by ear tag. Female rats (SHR; 12 weeks old) were ovarectomized (ovx) and treated for 4 weeks starting one day after ovx according to the protocol outlined below. All compounds were injected daily using ethanol (EtOH)/peanut oil 4+1 as the vehicle. [table] 12 weeks old female SHR (Charles River™) were ovariectomized or sham-operated. Starting one day after ovariectomy animals were randomly selected for a daily subcutaneous injection of 17β-estradiol (E2, 2 μg/kg body weight/d), the selective ERα agonist 3,17β-Dihydroxy-19-nor-17α-pregna-1,3,5(10)-triene-21,16α-lactone (WO 02/26763) (30 μg/kg body weight/d), the selective ERβ agonist 8β-Vinyl-estra-1,3,5(10)-trien-3,17β-diol (or 17β-Fluor-9α-vinyl-estra-1,3,5(10)-trien-3,16α-diol, respectively 30 μg/kg body weight) or placebo. All animals had free access to standard rat chow and water. E2, 3,17β-Dihydroxy-19-nor-17α-pregna-1,3,5(10)-triene-21,16α-lactone and 8β-Vinyl-estra-1,3,5(10)-trien-3,17β-diol (or 17β-Fluor-9α-vinyl-estra-1,3,5(10)-trien-3,16α-diol) were dissolved in ethanol and injected daily using peanut oil as a carrier substance, placebo animals received ethanol/peanut oil alone. After 4 weeks treatment hemodynamic parameters were measured as described previously (Fraccarollo D, Hu K, Galuppo P, Gaudron P, Ertl G. (1997), Circulation. 1997;96:3963-3973) and animals were euthanized. The following parameters were determined: Systolic, diastolic, mean blood pressure; left ventricular ejection fraction; systolic and diastolic left ventricular pressure as well as the velocity of pressure increase and decrease in the left ventricle; cardiac output, cardiac index, heart rate; systemic vascular resistance. All measurements were performed at rest under isofluran anesthesia. Values are expressed as mean±SEM of parameters from different animals. Statistical analysis was performed by one-way analysis of variance (ANOVA) followed by a post hoc Bonferroni test. P values <0.05 were considered statistically significant.

[5] = test system: spontaneously hypertensive rats (SHR); assay: Cardiac hypertrophy (heart weight) in ovariectomized SHR; assay type: in vivo, rat; conditions: ovx SHR, 4 weeks daily sc; 30 μg/kg/d (estradiol 2 μg/kg/d), compared to placebo treated rats; FIG. 6
Description: as §1, with “[table]” for “[table] 12 weeks old female SHR (Charles River™) were ovariectomized or sham-operated.”, “Cardiac hypertrophy in all animals was determined by measuring total heart” for “Uterus fresh”, “and subsequent normalization to tibia length. Values are expressed” for “was measured”, “mean±SEM” for “an indicator”, “parameters from different animals. […]” for “classical ERα-mediated estrogen action.”

[6] = ovx (estradiol-deficient) SHR, 30 μg/kg/d sc for 4 weeks

T2 sequence (Q92731 whole entry): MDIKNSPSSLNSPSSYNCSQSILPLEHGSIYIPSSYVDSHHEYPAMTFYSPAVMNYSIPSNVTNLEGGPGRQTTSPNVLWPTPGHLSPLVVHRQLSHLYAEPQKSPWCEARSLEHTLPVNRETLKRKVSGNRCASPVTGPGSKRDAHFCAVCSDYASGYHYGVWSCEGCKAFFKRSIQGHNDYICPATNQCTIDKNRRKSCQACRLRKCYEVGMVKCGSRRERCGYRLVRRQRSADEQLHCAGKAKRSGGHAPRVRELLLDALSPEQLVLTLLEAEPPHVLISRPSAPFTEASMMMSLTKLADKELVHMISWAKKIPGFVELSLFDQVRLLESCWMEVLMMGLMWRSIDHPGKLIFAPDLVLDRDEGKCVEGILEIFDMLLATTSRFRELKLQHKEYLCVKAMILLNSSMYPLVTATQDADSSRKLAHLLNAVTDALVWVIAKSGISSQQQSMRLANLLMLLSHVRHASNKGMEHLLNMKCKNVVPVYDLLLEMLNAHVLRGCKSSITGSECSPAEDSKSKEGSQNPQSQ
T1 sequence (Q62986 whole entry): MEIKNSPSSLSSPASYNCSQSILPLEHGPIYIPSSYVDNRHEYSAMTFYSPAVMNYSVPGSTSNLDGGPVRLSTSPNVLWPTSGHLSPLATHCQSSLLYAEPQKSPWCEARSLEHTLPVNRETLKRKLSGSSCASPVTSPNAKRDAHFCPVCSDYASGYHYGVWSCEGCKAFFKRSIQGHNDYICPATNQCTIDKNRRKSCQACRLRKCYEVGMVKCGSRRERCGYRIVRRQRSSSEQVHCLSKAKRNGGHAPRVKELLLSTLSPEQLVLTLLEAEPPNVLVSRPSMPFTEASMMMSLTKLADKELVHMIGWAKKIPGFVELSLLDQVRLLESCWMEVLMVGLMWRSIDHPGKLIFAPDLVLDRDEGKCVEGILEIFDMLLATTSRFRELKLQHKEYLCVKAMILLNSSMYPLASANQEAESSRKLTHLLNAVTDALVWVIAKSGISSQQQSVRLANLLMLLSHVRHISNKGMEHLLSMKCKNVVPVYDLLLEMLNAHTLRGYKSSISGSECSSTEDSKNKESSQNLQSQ

Compound	binding affinity to rat prostate estrogen receptor compared to rat uterus estrogen receptor [1]	affinity to human ERβ compared to ERα (human ERβ)	stimulation of uterine growth (uterine weight) [2]	effect on ovx-induced adipose phenotype (body weight) [3]	cardiac index [4, 6]	cardiac output [4, 6]	left-ventricular stroke volume ([4]; ovx (estradiol-deficient) SHR, 30 μg/kg/d sc for 4 weeks, FIG. 5)	blood pressure ([4]; 30 μg/kg/d sc for 4 weeks)	effectiveness in lowering blood pressure relative to estradiol and the ERα agonist [4]	cardiac hypertrophy (heart weight) [5]
C=C[C@@]12CCc3cc(O)ccc3[C@H]1CC[C@@]1(C)[C@H]2CC[C@@H]1O [8β-Vinyl-estra-1,3,5(10)-trien-3,17β-diol]	higher binding affinity to the rat prostate compared to rat uterus estrogen receptor	higher affinity to human ERβ compared to ERα	did neither cause stimulation of uterine growth	nor affect the ovx-induced adipose phenotype	augmented	significant improvement of cardiac output; also recorded: increase cardiac output; also recorded: augmented	augmented	significant reduction of systolic as well as diastolic blood pressure; also recorded: lower systolic, mean and diastolic blood pressure; also recorded: lowered blood pressure levels	more effective	significantly inhibited; also recorded: prevent the development of cardiac hypertrophy; also recorded: inhibitory effect on cardiac hyperthrophy as indicated by a reduction in heart weight
C=C[C@]12CC[C@]3(C)[C@@H](F)[C@H](O)C[C@H]3[C@@H]1CCc1cc(O)ccc12 [17β-Fluor-9α-vinyl-estra-1,3,5(10)-trien-3,16α-diol]	higher binding affinity to the rat prostate compared to rat uterus estrogen receptor	higher affinity to human ERβ compared to ERα				significant improvement of cardiac output; also recorded: increase cardiac output		significant reduction of systolic as well as diastolic blood pressure; also recorded: lower systolic, mean and diastolic blood pressure	more effective	significantly inhibited; also recorded: prevent the development of cardiac hypertrophy
